Data taken from patent US20160339187A1, “DEVICES AND METHODS FOR CONTROLLED DRUG DELIVERY OF WET AEROSOLS” (THE RESEARCH FOUNDATION FOR THE STATE UNIVERSITY OF NEW YORK, priority 2014, published 2016).

Experiments:
[1] = Gamma camera deposition in patients inhaling aerosol during tidal breathing from AeroTech II nebulizers; assay type: in vivo, human; settings: group of patients, AeroTech II type nebulizers
[2] = 15 normal subjects, Aeroneb nebulizer with Idehaler; cited from earlier work

Structure (SMILES) | upper airway deposition as a percentage of total deposition [1] | oropharyngeal activity (average) [2]
N=C(N)c1ccc(OCCCCCOc2ccc(C(=N)N)cc2)cc1 [pentamidine] | ≤ 5% | –
NCC[C@H](O)C(=O)N[C@@H]1C[C@H](N)[C@@H](O[C@H]2O[C@H](CN)[C@@H](O)[C@H](O)[C@H]2O)[C@H](O)[C@H]1O[C@H]1O[C@H](CO)[C@@H](O)[C@H](N)[C@H]1O [amikacin] | – | 29.4±7.4%
